Measured values published in PMC7839693 (Chemistry (Weinheim an Der Bergstrasse, Germany), 2020).

Assays:
human integrin αvβ3 = human integrin αvβ3 (Homo sapiens, UniProt P05106+P06756, DEL719-788); assay: Solid-phase receptor binding assay
M21 human melanoma cells = assay: In vitro cytotoxicity assay; format: cell-based; conditions: incubated alone (no β-glucuronidase)
E. coli β‐glucuronidase = E. coli β‐glucuronidase (Escherichia coli, UniProt P05804); assay: β-glucuronidase cleavage assay / drug release; format: in vitro ADME
[1] = Pilot experiment: stability of Cry-55gly under alkaline conditions; format: physicochemical; conditions: LiOH/H2O, 0 °C, 30 minutes, HPLC-MS
[2] = cited from earlier work
[3] = cited from earlier work; remark: listed apart in the source

Compound | IC50 (human integrin αvβ3) [nM] | decreased activity relative to the free drug 3 (M21 human melanoma cells) [fold] | release of Cry-55gly after β-glucuronidase cleavage (E. coli β‐glucuronidase; E. coli β-glucuronidase 200 U mL-1, 37 °C, 60 min, HPLC and UPLC-MS) | stability in the absence of enzyme (control) (E. coli β‐glucuronidase; control experiments without β-glucuronidase, buffer, 37 °C, HPLC) | conversion into the epoxide (cryptophycin-52, 4) [1] [%] | stability in human plasma [2] | stability in mouse plasma [3]
COc1ccc(C[C@H]2NC(=O)/C=C/C[C@@H]([C@H](C)[C@@H](OC(=O)CNC(=O)OCc3cc(NC(=O)CCCc4cn(CCC(=O)NCCCC[C@@H]5NC(=O)[C@@H](Cc6ccccc6)NC(=O)[C@H](CC(=O)O)NC(=O)CNC(=O)[C@H](CCCNC(=N)N)NC5=O)nn4)cc(O[C@@H]4O[C@H](C(=O)O)[C@@H](O)[C@H](O)[C@H]4O)c3)[C@@H](Cl)c3ccccc3)OC(=O)[C@H](CC(C)C)OC(=O)C(C)(C)CNC2=O)cc1Cl [compound 2, c(RGDfK)‐(m)‐GlcA‐linker‐Cry‐55gly] | 11.7 | 70 | not released over time | stable | – | – | –
COc1ccc(C[C@H]2NC(=O)/C=C/C[C@@H]([C@H](C)[C@@H](OC(=O)CN)[C@@H](Cl)c3ccccc3)OC(=O)[C@H](CC(C)C)OC(=O)C(C)(C)CNC2=O)cc1Cl [compound 3, cryptophycin‐55 glycinate] | – | – | – | – | 70 | excellent stability | excellent stability
